Results from patent publication US4665082A, “Cysteine delivery system” (Cornell Research Foundation, priority 1985, dated 1987).
Entries after “also recorded” stand apart in the source; their conditions may differ. Blank lines part the entries; values can stand above or below the molecule they belong to.

Legend:
[1] = molecular target: T1, 5-oxo-L-prolinase (Rattus norvegicus, UniProt P97608); experiment: Inhibition of utilization of 5-oxo-L-proline (glutamate formation) by the purified enzyme; type: biochemical; details: 1 mM 5-oxo-L-proline; under these conditions (1, 5, 10 mM)
T1 construct: 5-Oxo-L-prolinase was isolated from rat kidney and freed of 5-oxoproline by gel filtration; from tissue; host or cells: rat kidney
T1 sequence (P97608 1-1288): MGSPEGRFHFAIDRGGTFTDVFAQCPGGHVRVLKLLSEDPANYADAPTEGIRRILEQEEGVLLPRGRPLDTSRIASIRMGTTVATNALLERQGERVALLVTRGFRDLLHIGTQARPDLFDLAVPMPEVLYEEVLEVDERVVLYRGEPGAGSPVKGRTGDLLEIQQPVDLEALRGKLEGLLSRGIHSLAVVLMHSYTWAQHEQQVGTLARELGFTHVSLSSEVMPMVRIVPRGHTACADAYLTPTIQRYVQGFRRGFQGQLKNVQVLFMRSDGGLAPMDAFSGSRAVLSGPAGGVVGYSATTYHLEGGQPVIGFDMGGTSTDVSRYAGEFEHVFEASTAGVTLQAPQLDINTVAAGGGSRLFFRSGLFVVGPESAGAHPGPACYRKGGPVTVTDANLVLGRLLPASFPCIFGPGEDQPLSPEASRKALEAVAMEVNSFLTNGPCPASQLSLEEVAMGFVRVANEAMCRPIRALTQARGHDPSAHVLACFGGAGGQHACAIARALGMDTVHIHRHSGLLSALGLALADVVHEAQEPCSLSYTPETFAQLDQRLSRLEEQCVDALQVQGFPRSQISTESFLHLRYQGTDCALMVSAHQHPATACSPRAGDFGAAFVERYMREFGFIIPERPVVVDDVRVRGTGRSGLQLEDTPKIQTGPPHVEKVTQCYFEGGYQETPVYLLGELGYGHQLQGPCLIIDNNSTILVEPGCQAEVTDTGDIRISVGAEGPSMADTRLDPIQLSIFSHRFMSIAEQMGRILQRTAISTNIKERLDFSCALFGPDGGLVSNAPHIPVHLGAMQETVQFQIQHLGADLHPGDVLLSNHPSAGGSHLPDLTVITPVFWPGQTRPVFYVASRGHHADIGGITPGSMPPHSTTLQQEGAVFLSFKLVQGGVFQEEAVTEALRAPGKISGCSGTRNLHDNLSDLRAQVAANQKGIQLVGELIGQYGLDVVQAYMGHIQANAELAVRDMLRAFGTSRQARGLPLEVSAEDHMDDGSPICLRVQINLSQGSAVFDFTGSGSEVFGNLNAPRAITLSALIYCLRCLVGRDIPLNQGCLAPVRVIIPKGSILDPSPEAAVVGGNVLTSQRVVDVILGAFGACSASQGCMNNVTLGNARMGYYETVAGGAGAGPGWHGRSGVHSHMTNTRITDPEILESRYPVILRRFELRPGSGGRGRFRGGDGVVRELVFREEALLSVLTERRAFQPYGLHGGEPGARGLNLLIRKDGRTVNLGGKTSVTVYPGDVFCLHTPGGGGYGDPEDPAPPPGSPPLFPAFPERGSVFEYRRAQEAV
Method: (§1) In the experiments the reaction mixtures were made up to contain (final volume 0.5 ml) 100 mM Na Hepes (Na salt of N-2-hydroxyethylpiperizine-N'-2ethanesulfonic acid) buffer (pH 8.0), 150 mM KCl, 8 mM MgCl2, 2 mM phosphoenolpyruvate, 5 mM ATP (adenosine triphosphate), pyruvate kinase, in excess, 20 micrograms of 5-oxoprolinase, and the substrate as indicated.
(§2) The L- and D-isomers of 2-oxothiazolidine-4-carboxylate were synthesized by the method set out in Kaneko et al, Bull, Chem. Soc. (Japan) vol. 37, pp. 242-4 (1964) as modified by the method of Shah et al, Cancer Research vol. 39, pp. 3942-7 (1979). 5-Oxo-L-prolinase was isolated from rat kidney and freed of 5-oxoproline by gel filtration. Other chemicals and materials were obtained commercially.
(§3) After incubation for 30 min. at 37° C., the reaction mixtures were treated with 0.1 volume of 1M HCl, and placed at 0° C. for 5 min.; and an equivalent volume of 1M 2-amino-2-hydroxylmethyl-1,3,-propanediol was added. Portions were analyzed for amino acids by use of a Durrum Model 500 amino acid analyzer. Cysteine was also determined in some experiments by reaction with 5,5'-dithiobis(2-nitrobenzoate (DTNB).
Energy for the reaction is supplied by the cleavage of ATP. […] The ratio of ADP to cysteine produced increased with time due undoubtedly to the loss of cysteine due to oxidation.

[2] = molecular target: T1, 5-oxo-L-prolinase; experiment: Action of 5-oxo-L-prolinase on substrates (formation of ADP and amino acid); type: biochemical; details: for Reaction with the enzyme in the presence of ATP (formation of ADP and cysteine): incubation with 5-oxo-L-prolinase and ATP, FIG. 2: 5 mM substrate
Method: as §1, §2, §3
At the indicated intervals portions were analyzed for ADP by the method indicated in the Table footnote, and for cysteine by reaction with DTNB.

[3] = tested on: hepatic glutathione; experiment: Hepatic glutathione level after injection; type: in vivo, mice; details: for level of hepatic glutathione relative to controls: mice fasted overnight, intraperitoneal injection (Na salt, 6.5 mmol/kilo; D-isomer equivalent doses)
Method: The effect of injecting mice with L-2-oxothiazolidine-4-carboxylate on the level of hepatic glutathione was studied. […] The maximal effect was observed about 4 hours after injection. […] These findings are indicative of in vivo formation of cysteine after administration of L-2-oxothiazolidine-4-carboxylate.
Mice fastened overnight were injected intraperitoneally with NaCl (controls; dashed line) or with Na L-2-oxothiazolidine-4-carboxylate (6.5 mmol/kilo). At intervals, the mice were sacrificed and the excised liver was homogenized in 5 volumes of 1% picric acid. After centrifugation, the protein-free supernatant solutions were analyzed for glutathione by the method of Tietze, Anal. Biochem 27, 502-22 (1969). Analyses were carried out in duplicate. In a number of instances, these values were checked by the 2-vinylpyridine procedure of Griffith, Anal. Biochem. 106; 207-12 (1980); good agreement between the two methods was observed. In the figure, the points are mean values and the bars indicate the average deviation from the mean. The numbers in parentheses give the number of animals used. The value for the controls was 4.40±0.9 umol/g.

[4] = tested on: metabolism of glutamate; experiment: In vivo metabolism of L-[14C]glutamate (respiratory 14CO2); details: mice, injection of L-[14C]glutamate
Method: (§4) The in vitro results showing that L-2-oxothiazolidine-4-carboxylate inhibits utilization of 5-oxoproline were confirmed by in vivo experiments. In the latter, animals were injected with 5-oxo-L-[^14 C]proline and the respiratory [^14 CO2 ] produced was collected and measured for several hours. […] However, L-2-oxothiazolidine-4-carboxylate is a much more efficient inhibitor.
(§5) FIG. 3 depicts the inhibition of 5-oxoproline metabolism by L-2-oxothiazolidine-4-carboxylate. Mice fasted overnight were injected intraperitoneally with NaCl (Curve 1; open symbols; controls) or with Na L-2-oxothiazolidine-4-carboxylate (2.5 mmol/kilo) (Curve 2; closed symbols). After 10 min., the mice were injected subcutaneously with 5-oxo-L-[^14 C]proline (A) or with L-[^14 C]glutamate (B) (0.02 mmol; 1.1×10^6 cpm). The mice were then placed in metabolic chambers and the respiratory CO2 was collected in ethanolamine/methanol, 1:4 (vol/vol). In A, each curve represents the results on 3 animals; the points are mean values and the bars represent standard deviations from the mean. In B, each curve represents the average of closely-agreeing results obtained from 2 animals.

[5] = tested on: liver glutathione; experiment: Liver glutathione in animals depleted of hepatic glutathione (acetoaminophenol); type: in vivo; details: mice depleted of hepatic glutathione, compound given even two hours after acetoaminophenol
Method: Administration of this compound therefore provides a way of getting cysteine into cells. One cannot give cysteine itself without complications since this amino acid is toxic extracellularly. However, when the L-oxothiazolidine compound is injected it enters the cell where it is split giving rise to cysteine within the cell. In a number of clinical situations, for example, after poisoning with excessive pain-killing drugs, e.g., those containing active ingredients known as N-acetyl-para-aminophenol, paracetamol, and acetaminophen, the liver glutathione levels decrease markedly. When cysteine is supplied to liver cells, additional glutathione can be synthesized and thus serve usefully in detoxifying the offending drug. Therefore, L-2-oxothiazolidine-4-carboxylate serves as an intracellular delivery system for cysteine and has potential as a therapeutic agent in situations in which there is depletion of liver glutathione. After acetoaminophenol is given to experimental animals such as mice, the liver glutathione declines rapidly because it is extensively utilized by reaction with the drug. […] For human treatment the L-isomer, preferably in the form of its neutral salt is administered directly into the gastro-intestinal tract or introduced intravenously.

[6] = tested on: 5-oxoproline metabolism; experiment: In vivo metabolism of 5-oxo-L-[14C]proline (respiratory 14CO2, urinary radioactivity); parameters: species or system mice
Method: as §4, §5

[7] = substrate 2 mM, 30 min at 37° C.

inhibition of glutamate formation (in words) [1]: did not inhibit glutamate formation
Products Formed: Amino Acid (determined after reduction with KBH4 and reaction with iodoacetamide) ([2]; substrate 5 mM, footnote e: less than 20 nmol): 0 nmol
SMILES: O=C1N[C@@H](C(=O)O)CS1 [D-2-oxothiazolidine-4-carboxylate]
Reaction with the enzyme in the presence of ATP (formation of ADP and cysteine) ([2]; 5 mM ATP, listed as D-isomer): absence of reaction; also recorded: No reaction was observed
level of hepatic glutathione relative to controls [3]: No such stimulation was observed

Reaction with the enzyme in the presence of ATP (formation of ADP and cysteine) ([2]; 5 mM ATP): rapid formation of ADP and cysteine
Products Formed: Amino Acid (after conversion to cystine) [2, 7]: 463 nmol
Products Formed: Amino Acid (determined after reduction with KBH4 and reaction with iodoacetamide) [2, 7]: 466 nmol
SMILES: O=C1N[C@H](C(=O)O)CS1 [L-2-oxothiazolidine-4-carboxylate]
apparent Km value ([2]; compared with the natural substrate 5-oxo-L-proline): somewhat lower than that found for the natural substrate
effect on the metabolism of glutamate [4]: does not have a significant effect
liver glutathione after depletion [5]: restoration of normal hepatic glutathione levels
liver glutathione after depletion ([5]; listed as L-isomer compound): an increase in liver glutathione occurs
free cysteine in acid extracts of the livers ([3]; amino acid analyses after reduction by dithiothreitol and derivatization with 2-vinylpyridine): No free cysteine was detected
level of hepatic glutathione relative to controls [3]: about twice those of the controls
injected dose (radioactivity) excreted in urine ([6]; animals treated with L-isomer and injected with 5-oxo-L-[14C]proline, none in urine of controls): about 16%
activity on a molar basis compared with L-2-imidazolidine-4-carboxylate (inhibition of 5-oxoproline metabolism in vivo) ([6]; in vivo comparison): at least four times more active
formation of [14CO2] from injected 5-oxo-L-[14C]proline ([6]; mice, Na salt 2.5 mmol/kilo intraperitoneally, 10 min before 5-oxo-L-[14C]proline s.c.): marked decrease

calculated Vmax value ([2]; natural substrate compared with the L-isomer): higher than that found for the L-isomer
SMILES: O=C1CC[C@@H](C(=O)O)N1 [5-Oxo-L-proline, 5-oxo-L-proline]

Products Formed: ADP ([2]; substrate 2 mM, 5 mM ATP, 20 micrograms enzyme, 30 min at 37° C., pH 8.0, pyruvate kinase-lactate dehydrogenase coupled assay): 930 nmol
Products Formed: Amino Acid ([2]; substrate 2 mM, footnote f: less than 5 nmol): 0 nmol
SMILES: O=C1NC[C@@H](C(=O)O)N1 [L-2-imidazolidone-4-carboxylate]
